Source: patent publication US5480990A, “Bicyclopolyazamacrocyclocarboxylic acid complexes for use as contrast agents” (The Dow Chemical Company, priority 1993, dated 1996)

Tests used:
[1] = commercial contrast agent, background; cited from earlier work
[2] = Percent metal as a complex (Sephadex column, 159Gd tracer); format: physicochemical
Description: A stock ^159 GdCl3 solution was prepared by adding 2 μL of 3×10^-4 M ^159 GdCl3 in 0.1N HCl to 2 mL of a 3×10^-4 M GdCl3 carrier solution. Appropriate ligand solutions were then prepared in deionized water. The 1:1 ligand/metal complexes were then prepared by combining the ligands (dissolved in 100-500 μL of deionized water) with 2 mL of the stock 159GDCl3 solution, followed by through mixing to give an acidic solution (pH=2). The pH of the solution was then raised to 7.0 using 0.1N NaOH. The percent metal as a complex was then determined by passing a sample of the complex solution through a Sephadex™ G-50 column, eluting with 4:1 saline ([…]) and collecting 2×3 mL fractions. The amount of radioactivity in the combined elutions was then compared with that left on the resin (non-complexed metal is retained on the resin). […]
A solution of the ligand of Example D was prepared by dissolving 3.8 mg of ligand/0.517 mL of deionized water (pH=2). […] After thorough mixing, the percent metal as a complex was determined by passing a sample of the complex solution through a Sephadex™ column, eluting with 4:1 saline (0.85% NaCl/NH4 OH), and collecting 2×3 mL fractions. The amount of radioactivity in the combined elutions was then compared with that left on the resin. […] By this method complexation was determined to be 92%. […] The pH stability was then determined using the General Procedure above.

[3] = Biodistribution: % injected dose in several tissues of Sprague Dawley rats, 30 min after tail vein injection; format: in vivo; conditions: rat
Description: Sprague Dawley rats were allowed to acclimate for five days then injected with 100 μL of the complex solution via a tail vein. The rats weighed between 150 and 200 g at the time of injection. After 30 min. the rats were killed by cervical dislocation and dissected. The amount of radioactivity in each tissue was determined by counting in a NaI scintillation counter coupled to a multichannel analyzer. The counts were compared to the counts in 100 μL standards in order to determine the percentage of the dose in each tissue or organ.
The percent dose in blood was estimated assuming blood to be 7% of the body weight. The percent dose in bone was estimated by multipuling the percent dose in the femur by 25. The percent dose in muscle was estimated assuming muscle to be 43% of the body weight.
In addition to organ biodistribution, chelates of the compounds of Formula (I) were evaluated for efficiency of bone localization since phosphonates are known for their ability to bind to hydroxyapatite.
The percent of the injected dose of complex of Example 1 (^159 Gd-PCTA) in several tissues are given in Table I. The numbers represent the average of 5 rats? per data point.

[4] = Imaging experiments (MRI) in rat, kidney enhancement; format: in vivo, Sprague Dawley rat; conditions: intramuscular, 0.05-0.1 mmol Gd/kg body weight
Description: Injectable solutions were first prepared (0.5M) by dissolving the appropriate amount of each complex in 2 mL of deionized water. The pH of the solutions were then adjusted to 7.4 using 1M HCl or NaOH as needed. The total Gd content of each solution was then determined by ICP analysis.
An anethized Sprague Dawley rat was injected intramuscularly with one of the metal solutions described above at a dose of 0.05-0.1 mmol Gd/kg body weight. Images were then taken at various time intervals and compared with a non-injected control at time 0.

Structure (SMILES) | distribution [1] | elimination [1] | complexation after passing through the resin ([2]; 1:1 ligand to metal ratio, after passing through the resin) | complexation (percent metal as a complex) ([2]; 1:1 ligand/metal, before passing through the resin) [%] | % injected dose in blood, average ([3]; blood (assumed 7% of body weight), 100 μL tail vein, average of 5 rats) [% INJECTED DOSE] | % injected dose in bone, average ([3]; bone (femur x 25), 100 μL tail vein, average of 5 rats) [% INJECTED DOSE] | % injected dose in kidney, average ([3]; kidney, 100 μL tail vein, average of 5 rats) [% INJECTED DOSE] | % injected dose in liver, average ([3]; liver, 100 μL tail vein, average of 5 rats) [% INJECTED DOSE] | % injected dose in muscle, average ([3]; muscle (assumed 43% of body weight), 100 μL tail vein, average of 5 rats) [% INJECTED DOSE] | bone to blood ratio (% dose/g) ([3]; ratio of % dose/g) | bone to liver ratio ([3]; ratio of % dose/g) | bone to muscle ratio ([3]; ratio of % dose/g) | % injected dose in spleen, average ([3]; spleen, 100 μL tail vein, average of 5 rats) [% INJECTED DOSE] | uptake by the renal system [4] | enhancement of the kidney image ([4]; vs non-injected control at time 0)
CNC[C@H](O)[C@@H](O)[C@H](O)[C@H](O)CO.CNC[C@H](O)[C@@H](O)[C@H](O)[C@H](O)CO.O=C([O-])CN(CCN(CC(=O)[O-])CC(=O)O)CCN(CC(=O)[O-])CC(=O)O.[Gd+3] [Magnevist, complex of gadolinium with diethylenetriaminepentaacetic acid] | freely distributes in extracellular fluid | efficient elimination through the renal system | – | – | – | – | – | – | – | – | – | – | – | – | –
O=C([O-])CN1CCN(CC(=O)[O-])Cc2cccc(n2)CN(CC(=O)[O-])CC1.[159Gd+3] [Gd-PCTA, ^159 Gd-3,6,9,15-tetraazabicyclo[9.3.1]pentadeca-1(15),11,13-triene-3,6,9-trimethylenecarboxylic acid] | – | – | greater than 98% | 92 | 5.10 | 7.38 | 1.81 | 0.78 | 7.76 | 7 | 3.5 | 4.8 | 0.05 | rapidly taken up by the renal system | brilliant enhancement of the kidney cortex as well as peripheral kidney tissue
